Structures are written as SMILES.

This assay concerns A.niger and P.funiculosum. In words: minimum inhibitory concentration (MIC) test, agar plates, fungal growth. Type of assay: cell-based. The following applies: agar inoculated with 10,000 units each of A.niger and P.funiculosum; 30° C., 2 weeks; in µg/mL (unit assumed). As for the experimental part: In a minimum inhibitory concentration (MIC) test, the amount of the test compound needed to prevent fungal growth is established. In this test, agar containing the test compound at a specified concentration is inoculated with 1 ml of a broth containing 10,000 units each of A.niger and P.funiculosum. The agar plates inoculated in this fashion are incubated at 30° C. for 2 weeks and growth of the micro-organisms is determined by visual inspection to establish presence or absence of fungal growth. The compounds made according to Example 1 and their MIC data are shown in the following table, wherein X, Y, Y' and Z are as indicated in Structure I.

With `O=C1C(Cl)=C(Cl)C(=O)N1c1ccc(Sc2ccccc2)cc1` [X=Cl, Y=H, Y'=H, Z=S, N-(p-phenylthiophenyl)-2,3-dichloromaleimide], the MIC was 500-1000.
As for `O=C1C=CC(=O)N1c1ccc(Sc2ccccc2)cc1` [X=H, Y=H, Y'=H, Z=S], the figure is 100-200.
Regarding `O=C1C(Cl)=C(Cl)C(=O)N1c1ccc(Oc2ccc(Cl)cc2Cl)cc1` [X=Cl, Y=H, Y'=2,4-Cl2, Z=O], the MIC is reported as 1000-1500.
As for `COC(=O)c1cc(Oc2ccc(Cl)cc2Cl)ccc1N1C(=O)C(Cl)=C(Cl)C1=O` [X=Cl, Y=2-CO2 Me, Y'=2,4-Cl2, Z=O], the figure is 1000-1500.
For the compound `O=C1C(Cl)=C(Cl)C(=O)N1c1ccc(Sc2ccc([N+](=O)[O-])cc2)cc1` [X=Cl, Y=H, Y'=4-NO2, Z=S], the MIC was 50-100.
Take `O=C1C=CC(=O)N1c1ccc(Sc2ccc([N+](=O)[O-])cc2)cc1` [X=H, Y=H, Y'=4-NO2, Z=S]: the MIC is on record as 50-100.
As for `COC(=O)c1cc(Oc2ccc(Cl)cc2Cl)ccc1N1C(=O)C=CC1=O` [X=H, Y=2-CO2 Me, Y'=2,4-Cl2, Z=O], the figure is 10- 50; as for `O=C1C(Cl)=C(Cl)C(=O)N1c1ccc(Oc2ccc(Cl)c(Cl)c2)c(Cl)c1` [X=Cl, Y=3-Cl, Y'=3,4-Cl2, Z=O], > 2000.
In the case of `O=C1C=CC(=O)N1c1ccc(Oc2ccc(Cl)cc2Cl)cc1` [X=H, Y=H, Y'=2,4-Cl2, Z=O] it was 50-100.

(Values after patent US4130433A, “Industrial biocides” (Abbott Laboratories, priority 1977, dated 1978).)
